Experimental data published in patent US20240010620A1, “ARYLAZABICYCLO[2.1.1]HEXYLMETHANOLS DERIVATIVES AND MEDICAL USES THEREOF” (ATROGI AB, priority 2020, published 2024).

Assays:
Format in all cases: cell-based
L6-myotubes [1] = experiment: Glucose uptake in differentiated L6-myotubes (3H-2-deoxy-glucose); settings: agonist final concentration 1×10^−5, 3H-2-deoxy-glucose uptake
Procedure: L6-myoblasts were grown in Dulbecco's Modified Eagle's Medium (DMEM) containing 4,5 g/I glucose supplemented with 10% fetal bovine serum, 2 mM L-Glutamine, 50 U/ml penicillin, 50 μg/ml streptomycin and 10 mM HEPES. Cells were plated at 1×10^5 cells per ml in 24-well plates. After reaching 90% confluence the cells were grown in medium containing 2% FBS for 7 days where upon cells differentiated into myotubes. Differentiated L6-myotubes were serum-starved over night in medium containing 0.5% fatty-acid free BSA and stimulated with agonist, final concentration 1×10^−5. After 1 h 40 min cells were washed with warm, glucose free medium or PBS and another portion of agonist was added to glucose free medium. After 20 min the cells were exposed to 50 nM ^3H-2-deoxy-glucose for another 10 min before washed in ice cold glucose free medium or PBS and lysed in 0.2 M NaOH for 1 h in 60° C.

L6-myotubes [2] = experiment: Measurement of intracellular cAMP levels (alpha screen cAMP kit); settings: differentiated cells; agonist final concentration 1×10^−5, 15 min; 1 mM IBMX
Procedure: L6-myoblasts were grown in Dulbecco's Modified Eagle's Medium (DMEM) containing 4,5 g/I glucose supplemented with 10% fetal bovine serum, 2 mM L-Glutamine, 50 U/ml penicillin, 50 μg/ml streptomycin and 10 mM HEPES. Cells were plated at 1×10^5 cells per ml in 24-well plates. After reaching 90% confluence the cells were grown in medium containing 2% FBS for 7 days where upon cells differentiated into myotubes. Differentiated cells were serum-starved over night and stimulated with agonist, final concentration 1×10^−5, for 15 min in stimulation buffer (HBSS supplemented with 1% BSA, 5 mM HEPES and 1 mM IBMX, pH 7.4) The medium was then aspirated and to end the reaction 100 μL of 95% EtOH was added to each well of a 24-well plate and cells were kept in −20° C. over night. The EtOH was let to evaporate and 500 μL of lysis buffer (1% BSA, 5 mM HEPES and 0.3% Tween-20, pH 7.4) was added to each well before put in −80° C. for 30 min and then kept in −20° C. Intracellular cAMP levels were detected using an alpha screen cAMP kit (6760635D from Perkin Elmer). The activity for each compound is compared to that of isoproterenol.

L6-myotubes [3] = experiment: Glucose uptake in the presence of the β2-adrenergic receptor antagonist ICI-118,551; settings: differentiated L6-myotubes; compound 1×10^−5 M; ICI-118,551 1×10^−5 M
Procedure: L6-myoblasts were grown in Dulbecco's Modified Eagle's Medium (DMEM) containing 4,5 g/I glucose supplemented with 10% fetal bovine serum, 2 mM L-Glutamine, 50 U/ml penicillin, 50 μg/ml streptomycin and 10 mM HEPES. Cells were plated at 1×10^5 cells per ml in 24-well plates. After reaching 90% confluence the cells were grown in medium containing 2% FBS for 7 days where upon cells differentiated into myotubes. Differentiated L6-myotubes were serum-starved overnight in medium containing 0.5% fatty-acid free BSA and were incubated with the β2-adrenergic receptor antagonist ICI-118,551 at a final concentration of 1×10^−5 M for 30 min. The cells were stimulated with a compound of the invention, at a final concentration of 1×10^−5 M. After 1 h 40 min the cells were washed twice with warm, glucose free medium or PBS and additional portions of the compound of the invention and the antagonist were added. After 20 min the cells were exposed to 50 nM ^3H-2-deoxyglucose for 10 min before washed with ice cold glucose free medium or PBS three times and lysed with 0.2 M NaOH, 400 μL/well, for 1 h at 60° C. The cell lysate was mixed with 4 mL scintillation buffer (Emulsifier Safe, Perkin Elmer) and the radioactivity was detected in a β-counter (Tri-Carb 4810TR, Perkin Elmer). The activity for each compound is compared to that of isoproterenol.

| Compound | Biological example 1: glucose uptake, activity compared to that of isoproterenol (L6-myotubes [1]) | Biological example 2: intracellular cAMP levels, activity compared to that of isoproterenol (L6-myotubes [2]) | Biological example 3: glucose uptake in the presence of ICI-118,551, activity compared to that of isoproterenol (L6-myotubes [3]) |
| --- | --- | --- | --- |
| CC12CC(C1)[C@H]([C@H](O)c1cccc(F)c1)N2.Cl [Example 1, (R)-(3-Fluorophenyl)((R)-1-methyl-2-azabicyclo[2.1.1]hexan-3-yl)methanol hydrochloride] | +++ (activity of more than 75% of that of isoproterenol) | ++ (between 75 and 50%) | – |
| CC12CC(C1)[C@@H]([C@@H](O)c1cccc(F)c1)N2.Cl [Example 2, (S)-(3-Fluorophenyl)((S)-1-methyl-2-azabicyclo[2.1.1]hexan-3-yl)methanol hydrochloride] | ++ (between 75 and 50%) | − (less than 25%) | – |
| CC12CC(C1)[C@H]([C@@H](O)c1cccc(F)c1)N2.Cl [Example 3, (S)-(3-Fluorophenyl)((R)-1-methyl-2-azabicyclo[2.1.1]hexan-3-yl)methanol hydrochloride] | + (between 50 and 25%) | − (less than 25%) | – |
| CC12CC(C1)[C@@H]([C@H](O)c1cccc(F)c1)N2.Cl [Example 4, (R)-(3-Fluorophenyl)((S)-1-methyl-2-azabicyclo[2.1.1]hexan-3-yl)methanol hydrochloride] | − (less than 25%) | − (less than 25%) | – |
| CC12CC(C1)[C@H]([C@H](O)c1cccc(Cl)c1)N2.Cl [Example 5, (R)-(3-Chlorophenyl)((R)-1-methyl-2-azabicyclo[2.1.1]hexan-3-yl)methanol hydrochloride] | +++ (activity of more than 75% of that of isoproterenol) | − (less than 25%) | – |
| CC12CC(C1)[C@@H]([C@@H](O)c1cccc(Cl)c1)N2.Cl [Example 6, (S)-(3-Chlorophenyl)((S)-1-methyl-2-azabicyclo[2.1.1]hexan-3-yl)methanol hydrochloride] | + (between 50 and 25%) | − (less than 25%) | – |
| CC12CC(C1)[C@H]([C@@H](O)c1cccc(Cl)c1)N2.Cl [Example 7, (S)-(3-Chlorophenyl)((R)-1-methyl-2-azabicyclo[2.1.1]hexan-3-yl)methanol hydrochloride] | ++ (between 75 and 50%) | − (less than 25%) | – |
| CC12CC(C1)[C@@H]([C@H](O)c1cccc(Cl)c1)N2.Cl [Example 8, (R)-(3-Chlorophenyl)((S)-1-methyl-2-azabicyclo[2.1.1]hexan-3-yl)methanol hydrochloride] | + (between 50 and 25%) | − (less than 25%) | – |
| CC12CC(C1)[C@H]([C@H](O)c1ccccc1F)N2.Cl [Example 9, (R)-(2-Fluorophenyl)((R)-1-methyl-2-azabicyclo[2.1.1]hexan-3-yl)methanol hydrochloride] | +++ (activity of more than 75% of that of isoproterenol) | +++ (activity of more than 75% of that of isoproterenol) | – |
| CC12CC(C1)[C@@H]([C@@H](O)c1ccccc1F)N2.Cl [Example 10, (S)-(2-Fluorophenyl)((S)-1-methyl-2-azabicyclo[2.1.1]hexan-3-yl)methanol hydrochloride] | +++ (activity of more than 75% of that of isoproterenol) | − (less than 25%) | – |
| CC12CC(C1)[C@H]([C@@H](O)c1ccccc1F)N2.Cl [Example 11] | +++ (activity of more than 75% of that of isoproterenol) | − (less than 25%) | − (less than 25%) |
| CC12CC(C1)[C@@H]([C@H](O)c1ccccc1F)N2.Cl [Example 12, (R)-(2-Fluorophenyl)((S)-1-methyl-2-azabicyclo[2.1.1]hexan-3-yl)methanol hydrochloride] | +++ (activity of more than 75% of that of isoproterenol) | − (less than 25%) | – |
| CC12CC(C1)[C@H]([C@H](O)c1cncc(F)c1)N2 [Example 13, (R)-(5-Fluoropyridin-3-yl)((R)-1-methyl-2-azabicyclo[2.1.1]hexan-3-yl)-methanol] | +++ (activity of more than 75% of that of isoproterenol) | − (less than 25%) | – |
| CC12CC(C1)[C@@H]([C@@H](O)c1cncc(F)c1)N2 [Example 14, (S)-(5-Fluoropyridin-3-yl)((S)-1-methyl-2-azabicyclo[2.1.1]hexan-3-yl)-methanol] | ++ (between 75 and 50%) | − (less than 25%) | – |
| CC12CC(C1)[C@H]([C@@H](O)c1cncc(F)c1)N2 [Example 15, (S)-(5-Fluoropyridin-3-yl)((R)-1-methyl-2-azabicyclo[2.1.1]hexan-3-yl)-methanol] | − (less than 25%) | − (less than 25%) | – |
| CC12CC(C1)[C@@H]([C@H](O)c1cncc(F)c1)N2 [Example 16, (R)-(5-Fluoropyridin-3-yl)((S)-1-methyl-2-azabicyclo[2.1.1]hexan-3-yl)-methanol] | + (between 50 and 25%) | − (less than 25%) | – |
| CC12CC(C1)[C@H]([C@H](O)c1cccc(N)c1F)N2.Cl [Example 17, (R)-(3-Amino-2-fluorophenyl)((R)-1-methyl-2-azabicyclo[2.1.1]hexan-3-yl)methanol hydrochloride] | +++ (activity of more than 75% of that of isoproterenol) | − (less than 25%) | – |
| CC12CC(C1)[C@@H]([C@@H](O)c1cccc(N)c1F)N2.Cl [Example 18, (S)-(3-Amino-2-fluorophenyl)((S)-1-methyl-2-azabicyclo[2.1.1]hexan-3-yl)methanol hydrochloride] | ++ (between 75 and 50%) | − (less than 25%) | – |
| CC12CC(C1)[C@H]([C@@H](O)c1cccc(N)c1F)N2.Cl [Example 19, (S)-(3-Amino-2-fluorophenyl)((R)-1-methyl-2-azabicyclo[2.1.1]hexan-3-yl)methanol hydrochloride] | ++ (between 75 and 50%) | − (less than 25%) | – |
| CC12CC(C1)[C@@H]([C@H](O)c1cccc(N)c1F)N2.Cl [Example 20, (R)-(3-Amino-2-fluorophenyl)((S)-1-methyl-2-azabicyclo[2.1.1]hexan-3-yl)methanol hydrochloride] | ++ (between 75 and 50%) | − (less than 25%) | – |
